Our source for the T/C values is PubChem BioAssay AID292 (DTP/NCI, 2004).

The assay has as its system B6C3F1 mice, ip Sarcoma M5076, median survival T/C. Put plainly: NCI In Vivo Anticancer Drug Screen. Data for tumor model Sarcoma M5076 (intraperitoneal) in B6C3F1 mice. The conditions noted are these: endpoint: median survival time, higher = longer survival. Put shortly: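 Antitumour effect is judged in tumour-bearing mice by comparing survival after compound dosing against vehicle-only animals, reported as T/C.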

The mark [1] stands for this setting: dose: 31.25 mg/kg/injection, schedule: Q04DX004 (ip), vehicle: saline with Tween-80.
[2] abbreviates: dose: 62.5 mg/kg/injection, schedule: Q04DX004 (ip), vehicle: saline with Tween-80.
The mark [3] stands for this setting: dose: 125.0 mg/kg/injection, schedule: Q04DX004 (ip), vehicle: saline with Tween-80.
Where [4] appears, read: dose: 25.0 mg/kg/injection, schedule: Q04DX004 (ip), vehicle: Klucel (hydroxypropylcellulose) (HPC).
Where [5] appears, read: dose: 50.0 mg/kg/injection, schedule: Q04DX004 (ip), vehicle: Klucel (hydroxypropylcellulose) (HPC).
[6] abbreviates: dose: 100.0 mg/kg/injection, schedule: Q04DX004 (ip), vehicle: Klucel (hydroxypropylcellulose) (HPC).
Where [7] appears, read: dose: 200.0 mg/kg/injection, schedule: Q04DX004 (ip), vehicle: Klucel (hydroxypropylcellulose) (HPC).
Where [8] appears, read: dose: 400.0 mg/kg/injection, schedule: Q04DX004 (ip), vehicle: Klucel (hydroxypropylcellulose) (HPC).
[9] abbreviates: dose: 50.0 mg/kg/injection, schedule: Q04DX004 (ip), vehicle: saline with Tween-80.
Where [10] appears, read: dose: 100.0 mg/kg/injection, schedule: Q04DX004 (ip), vehicle: saline with Tween-80.
[11] abbreviates: dose: 200.0 mg/kg/injection, schedule: Q04DX004 (ip), vehicle: saline with Tween-80.
The mark [12] stands for this setting: dose: 400.0 mg/kg/injection, schedule: Q04DX004 (ip), vehicle: saline with Tween-80.
The mark [13] stands for this setting: dose: 250.0 mg/kg/injection, schedule: Q04DX004 (ip), vehicle: saline with Tween-80.
Where [14] appears, read: dose: 25.0 mg/kg/injection, schedule: Q04DX004 (ip), vehicle: saline.
Where [15] appears, read: dose: 50.0 mg/kg/injection, schedule: Q04DX004 (ip), vehicle: saline.
[16] abbreviates: dose: 100.0 mg/kg/injection, schedule: Q04DX004 (ip), vehicle: saline.
The mark [17] stands for this setting: dose: 12.5 mg/kg/injection, schedule: Q04DX004 (ip), vehicle: saline with Tween-80.
The mark [18] stands for this setting: dose: 25.0 mg/kg/injection, schedule: Q04DX004 (ip), vehicle: saline with Tween-80.

Molecules are shown by their SMILES. “And” between values parts separate entries of the source, which are not always exact repeats. Equal entries are not always repeated. Inconclusive results and toxic doses are left out.

For the molecule `COc1ccc(-n2cc[n+](C)c2/C=N\O)cc1`, the T/C reads like this: under setting [1], 101 % of control; under setting [2], 94 % of control; under setting [3], 114 % of control.
Regarding `Clc1ccc(CC(Cn2ccnc2)c2ccccc2Cl)cc1` (stereo unspecified), the T/C was 111 % of control (dose: 15.63 mg/kg/injection, schedule: Q04DX004 (ip), vehicle: saline with Tween-80); 102 % of control under setting [1]; 96 % of control under setting [2]; 87 % of control under setting [3].
As to `O=C(NNC(=O)c1cccc(C(=O)NNC(=O)c2ccc(Cl)c(Cl)c2)n1)c1ccc(Cl)c(Cl)c1`, the T/C was 102 % of control under setting [4] and 96 % of control under setting [5].
With `COc1ccc(C2NC(=S)NC(=O)C2C#N)cc1OC` (stereo unspecified), the T/C under setting [5] is 95 % of control, the T/C under setting [6] is 100 % of control, the T/C under setting [7] is 106 % of control and the T/C under setting [8] was 105 % of control.
`Nc1ccccc1Sc1cc(Cl)nnc1Cl`: the T/C is 97 % of control under setting [9], 98 % of control under setting [10], 102 % of control under setting [11] and 88 % of control under setting [12].
Take `Cn1c(=S)[nH]n(CCOc2ccccc2)c1=S`: the T/C was 105 % of control under setting [1], 99 % of control under setting [2], 101 % of control under setting [3] and 100 % of control under setting [13].
In the case of `COc1cc2c(cc1OC)[C@@H]1C(=O)c3ccc4c(c3O[C@@H]1CO2)C[C@H](C(C)C)O4`, the T/C by setting is: (dose: 12.5 mg/kg/injection, schedule: Q04DX004 (ip), vehicle: Klucel (hydroxypropylcellulose) (HPC)) 104 % of control; under setting [4], 104 % of control; under setting [5], 104 % of control.
In the case of `CN(C)N=Nc1ccc(C(=O)O)cc1`, the T/C under setting [14] was 122 % of control; the T/C under setting [15] is 153 % of control and 159 % of control and 169 % of control; the T/C under setting [16] is 168 % of control and 178 % of control and 181 % of control.
On to `Nc1ncc(C2OC(CO)C(O)C2O)c(=O)[nH]1` (stereo unspecified), for which the T/C reads like this: under setting [14], 106 % of control; under setting [15], 104 % of control; under setting [16], 103 % of control; (dose: 200.0 mg/kg/injection, schedule: Q04DX004 (ip), vehicle: saline) 96 % of control; (dose: 400.0 mg/kg/injection, schedule: Q04DX004 (ip), vehicle: saline) 100 % of control.
Regarding `CCOC(=O)c1c(C(=O)OC)nc2n1-c1ccccc1OC2`, the T/C under setting [1] is 100 % of control; the T/C (dose: 62.0 mg/kg/injection, schedule: Q04DX004 (ip), vehicle: saline with Tween-80) was 103 % of control; the T/C under setting [3] is 100 % of control; the T/C under setting [13] was 88 % of control; the T/C (dose: 500.0 mg/kg/injection, schedule: Q04DX004 (ip), vehicle: saline with Tween-80) is 96 % of control.
Consider `O=C(N/N=C/c1ccc(O)cc1)c1ccc(OCc2nc3ccccc3[nH]2)cc1`, for which the T/C runs as follows: under setting [4], 96 % of control; under setting [6], 93 % of control; under setting [8], 92 % of control.
In the case of `CC(O)CCC(=O)c1ccoc1` (stereo unspecified), the T/C (dose: 1.25 mg/kg/injection, schedule: Q03HX012 (ip), vehicle: saline) is 105 % of control; the T/C (dose: 2.5 mg/kg/injection, schedule: Q03HX012 (ip), vehicle: saline) is 95 % of control; the T/C (dose: 5.0 mg/kg/injection, schedule: Q03HX012 (ip), vehicle: saline) was 88 % of control; the T/C (dose: 10.0 mg/kg/injection, schedule: Q03HX012 (ip), vehicle: saline) is 100 % of control.
`NCc1cc(O)c(O)c(O)c1`: the T/C (dose: 75.0 mg/kg/injection, schedule: Q04DX004 (ip), vehicle: saline) was 100 % of control and 106 % of control; the T/C (dose: 150.0 mg/kg/injection, schedule: Q04DX004 (ip), vehicle: saline) is 100 % of control and 104 % of control; the T/C (dose: 300.0 mg/kg/injection, schedule: Q04DX004 (ip), vehicle: saline) was 100 % of control and 104 % of control; the T/C (dose: 600.0 mg/kg/injection, schedule: Q04DX004 (ip), vehicle: saline) was 101 % of control and 118 % of control; the T/C (dose: 1200.0 mg/kg/injection, schedule: Q04DX004 (ip), vehicle: saline) was 104 % of control.
Take `ClCCCN1CCN(CCCl)CC1`: the T/C (dose: 0.63 mg/kg/injection, schedule: Q04DX004 (ip), vehicle: saline with Tween-80) was 99 % of control; the T/C (dose: 1.25 mg/kg/injection, schedule: Q04DX004 (ip), vehicle: saline with Tween-80) is 118 % of control; the T/C (dose: 10.0 mg/kg/injection, schedule: Q04DX004 (ip), vehicle: saline with Tween-80) was 175 % of control; the T/C (dose: 20.0 mg/kg/injection, schedule: Q04DX004 (ip), vehicle: saline with Tween-80) is 94 % of control.
In the case of `Nc1nc(Br)nc2c1ncn2C1CC(O)C(CO)O1` (stereo unspecified), the T/C is 102 % of control (dose: 7.5 mg/kg/injection, schedule: Q03HX009 (ip), vehicle: saline); 118 % of control (dose: 15.0 mg/kg/injection, schedule: Q03HX009 (ip), vehicle: saline); 109 % of control (dose: 30.0 mg/kg/injection, schedule: Q03HX009 (ip), vehicle: saline); 116 % of control (dose: 60.0 mg/kg/injection, schedule: Q03HX009 (ip), vehicle: saline); 113 % of control (dose: 120.0 mg/kg/injection, schedule: Q03HX009 (ip), vehicle: saline).
In the case of `NCCSC(C[N+](=O)[O-])c1ccccc1Cl` (stereo unspecified), the T/C is 90 % of control and 100 % of control under setting [17]; 92 % of control and 105 % of control under setting [18]; 95 % of control and 98 % of control under setting [9]; 109 % of control under setting [10].
On to `NC(=O)c1ncn(C2CC3[O][Sn]([c]4ccccc4)([c]4ccccc4)[O]CC3O2)n1` (stereo unspecified), for which the T/C (dose: 31.13 mg/kg/injection, schedule: Q04DX004 (ip), vehicle: distilled water + Tween-80) is 95 % of control; the T/C (dose: 62.5 mg/kg/injection, schedule: Q04DX004 (ip), vehicle: distilled water + Tween-80) was 104 % of control; the T/C (dose: 125.0 mg/kg/injection, schedule: Q04DX004 (ip), vehicle: distilled water + Tween-80) is 114 % of control; the T/C (dose: 250.0 mg/kg/injection, schedule: Q04DX004 (ip), vehicle: distilled water + Tween-80) was 114 % of control; the T/C (dose: 500.0 mg/kg/injection, schedule: Q04DX004 (ip), vehicle: distilled water + Tween-80) was 122 % of control.
`CCNC(=O)OCc1cnc(C)c(OC(=O)NCC)c1COC(=O)NCC`: the T/C was 89 % of control under setting [9]; 90 % of control under setting [10]; 87 % of control under setting [11]; 86 % of control under setting [12]; 91 % of control (dose: 800.0 mg/kg/injection, schedule: Q04DX004 (ip), vehicle: saline with Tween-80).
`C/C(=C\c1ccccc1)C1C(C#N)C(=O)NC(=O)C1C#N` (stereo unspecified): the T/C is 100 % of control under setting [5], 113 % of control under setting [6], 106 % of control under setting [7] and 106 % of control under setting [8].
`COc1cc([C@@H]2c3cc4c(cc3[C@@H](OC3OC5COC(C)OC5C(O)C3O)[C@H]3COC(=O)[C@H]23)OCO4)cc(OC)c1O` (stereo partly specified): the T/C is 150 % of control (dose: 4.0 mg/kg/injection, schedule: Q04DX005 (ip), vehicle: saline); 157 % of control (dose: 8.0 mg/kg/injection, schedule: Q04DX004 (ip), vehicle: saline); 154 % of control (dose: 8.0 mg/kg/injection, schedule: Q04DX005 (ip), vehicle: saline); 153 % of control (dose: 16.0 mg/kg/injection, schedule: Q04DX004 (ip), vehicle: saline); 198 % of control (dose: 16.0 mg/kg/injection, schedule: Q04DX005 (ip), vehicle: saline); 172 % of control and 187 % of control (dose: 32.0 mg/kg/injection, schedule: Q04DX004 (ip), vehicle: saline). In addition, where the note is “dose: 32.0 mg/kg/injection, schedule: Q04DX005 (ip), vehicle: saline”, the T/C was 319 % of control.
Turning to `c1ccc(P(CCNCCP(c2ccccc2)c2ccccc2)c2ccccc2)cc1`, the T/C is, setting by setting: under setting [18], 88 % of control; under setting [9], 92 % of control; under setting [10], 90 % of control.
`COC(=O)c1cc(=O)c2c(ccc3oc(=O)ccc32)[nH]1`: the T/C by setting is: under setting [17], 104 % of control; under setting [18], 96 % of control; under setting [9], 92 % of control; under setting [10], 89 % of control; under setting [11], 89 % of control.
